Laboratory results taken from ChEMBL document CHEMBL1130837, “8-Aminoquinolines as anticoccidials--II” (Bioorg Med Chem Lett, 1998).

Tests used:
Type in all cases: functional, organism-based
Gallus gallus [1] = species on record: Gallus gallus; experiment: Inhibitory activity against second generation merozoids of Eimeria tenella in chick hepatocyte assay
Gallus gallus [2] = species on record: Gallus gallus; experiment: Inhibitory activity against second generation merozoids of Eimeria tenella in chick hepatocyte assay; value given as 0.2-1.0
Gallus gallus [3] = species on record: Gallus gallus; experiment: Inhibitory activity against second generation merozoids of Eimeria tenella in chick hepatocyte assay in the presence of iproniazid; value given as 0.004-0.0008
Gallus gallus [4] = species on record: Gallus gallus; experiment: Inhibitory activity against second generation merozoids of Eimeria tenella in chick hepatocyte assay in the absence of inhibitor; value given as 0.004-0.0008
Gallus gallus [5] = species on record: Gallus gallus; experiment: Inhibitory activity against second generation merozoids of Eimeria tenella in chick hepatocyte assay in the presence of Tranylcypromine; value given as 0.004-0.0008
Gallus gallus [6] = species on record: Gallus gallus; experiment: Inhibitory activity against second generation merozoids of Eimeria tenella in chick hepatocyte assay in the presence of Ketoconazole at 5 ug/ml; value given as 0.2-1.0
Gallus gallus [7] = species on record: Gallus gallus; experiment: Inhibitory activity against second generation merozoids of Eimeria tenella in chick hepatocyte assay in the presence of alpha-naphthoflavone at 5 ug/ml; value given as 0.2-1.0
Gallus gallus [8] = species on record: Gallus gallus; experiment: Inhibitory activity against second generation merozoids of Eimeria tenella in chick hepatocyte assay in the absence of inhibitor; value given as 0.2-1.0
Gallus gallus [9] = species on record: Gallus gallus; experiment: Inhibitory activity against second generation merozoids of Eimeria tenella in chick hepatocyte assay in the presence of Tranylcypromine; Value given as 1-5
Gallus gallus [10] = species on record: Gallus gallus; experiment: Inhibitory activity against second generation merozoids of Eimeria tenella in chick hepatocyte assay in the presence of iproniazid; Value given as 1-5
Gallus gallus [11] = species on record: Gallus gallus; experiment: Inhibitory activity against second generation merozoids of Eimeria tenella in chick hepatocyte assay in the presence of SKF-525A at 5 ug/ml; value given as 0.2-1.0
Gallus gallus [12] = species on record: Gallus gallus; experiment: Inhibitory activity against second generation merozoids of Eimeria tenella in chick hepatocyte assay in the absence of inhibitor; Value given as 0.08-0.016
Gallus gallus [13] = species on record: Gallus gallus; experiment: Inhibitory activity against second generation merozoids of Eimeria tenella in chick hepatocyte assay in the presence of iproniazid; Value given as 0.08-0.016
Gallus gallus [14] = species on record: Gallus gallus; experiment: Inhibitory activity against second generation merozoids of Eimeria tenella in chick hepatocyte assay in the presence of Tranylcypromine; Value given as 0.08-0.016

| SMILES | IC50 (Gallus gallus [1]) | IC50 (Gallus gallus [2]) | further results |
| --- | --- | --- | --- |
| COc1cc(NCCCC/C=N/OCc2ccc([N+](=O)[O-])cc2)c2ncccc2c1 | > 1 p.p.m. | – | – |
| COc1cc(NCCCCC(=O)O)c2ncccc2c1 | > 1 p.p.m. | – | – |
| CO/N=C/CCCCNc1cc(OC)cc2cccnc12 | – | 0.2 p.p.m. | – |
| COc1cc(NCCCC/C=N/O)c2ncccc2c1 | > 1 p.p.m. | – | – |
| COc1cc(NCCCC2(C)OCCO2)c2ncccc2c1 | > 1 p.p.m. | – | – |
| COc1cc(NCCCC2(c3ccc(F)cc3)OCCO2)c2ncccc2c1 | – | 0.2 p.p.m. | – |
| COc1cc(NCCCC/C=N/Oc2ccccc2)c2ncccc2c1 | – | 0.2 p.p.m. | – |
| COc1cc(NCCCCC2OCCO2)c2ncccc2c1 | – | 0.2 p.p.m. | – |
| COc1cc(NCCCC2OCCO2)c2ncccc2c1 | > 1 p.p.m. | – | – |
| COc1cc(NCCCC/C=N/OCC(=O)O)c2ncccc2c1 | > 1 p.p.m. | – | – |
| COc1cc(NCCCC/C=N/OC(C)(C)C)c2ncccc2c1 | – | 0.2 p.p.m. | – |
| COc1cc(NCCCCCO)c2ncccc2c1 | > 1 p.p.m. | – | – |
| C=CCO/N=C/CCCCNc1cc(OC)cc2cccnc12 | – | 0.2 p.p.m. | – |
| COc1cc(NCCCC/C=N/OC(=O)c2ccccc2)c2ncccc2c1 | – | 0.2 p.p.m. | – |
| CCO/N=C/CCCCNc1cc(OC)cc2cccnc12 | – | 0.2 p.p.m. | – |
| CCCCCCCCCCOc1cc2c(O)c(C(=O)OCC)cnc2cc1OCC [DECOQUINATE] | – | – | IC50 (Gallus gallus [3]): 0.0008 p.p.m.; IC50 (Gallus gallus [4]): 0.0008 p.p.m.; IC50 (Gallus gallus [5]): 0.0008 p.p.m. |
| N#CC(c1ccc(Cl)cc1)c1c(Cl)cc(-n2ncc(=O)[nH]c2=O)cc1Cl (stereo not given) [DICLAZURIL] | – | – | IC50 (Gallus gallus [3]): 0.0008 p.p.m.; IC50 (Gallus gallus [4]): 0.0008 p.p.m.; IC50 (Gallus gallus [5]): 0.0008 p.p.m. |
| COc1cc(NCCCCCNC(C)C)c2ncccc2c1 [PENTAQUINE] | – | – | IC50 (Gallus gallus [6]): 0.2 p.p.m.; IC50 (Gallus gallus [7]): 0.2 p.p.m.; IC50 (Gallus gallus [8]): 0.2 p.p.m.; IC50 (Gallus gallus [9]): 1 p.p.m.; IC50 (Gallus gallus [10]): 1 p.p.m.; IC50 (Gallus gallus [11]): 0.2 p.p.m. |
| CC[C@@H](C(=O)[C@@H](C)[C@@H](O)[C@H](C)[C@@H]1O[C@@H]([C@@H](CC)C(=O)O)CC[C@@H]1C)[C@H]1O[C@]2(C=C[C@@H](O)[C@]3(CC[C@@](C)([C@H]4CC[C@](O)(CC)[C@H](C)O4)O3)O2)[C@H](C)C[C@@H]1C [SALINOMYCIN] | – | – | IC50 (Gallus gallus [12]): 0.016 p.p.m.; IC50 (Gallus gallus [13]): 0.016 p.p.m.; IC50 (Gallus gallus [14]): 0.016 p.p.m. |
